Data on one compound can be found in patent publication US9895363B2, “Methods for modulating function of proliferating cell nuclear antigen (PCNA) and treating cancer with PCNA-targeting compounds” (University of Cincinnati, priority 2010, dated 2018).

A short description of series [1]: Toxicity evaluation in tumor-bearing mice. It counts as in vivo. As for the experimental part: The therapeutic effects of PCNA-I1 were evaluated in LNCaP cells and 22Rv1 tumor models. LNCaP or 22Rv1 cells (1-2×10^6 cells in gelfoam) were implanted into the subcutis of male nude mice. From four to five days later, tumor-bearing mice were intraperitoneally injected with 10 mg/kg or 50 mg/kg of PCNA-I1. The therapy was continued at three times/week until termination of experiments. Control and treated tumor-bearing mice were monitored daily. Mouse body weight was recorded for toxicity evaluation twice a week and tumor size was measured using calipers twice a week. The experiments were terminated when mice in control groups were moribund. Additionally, to further evaluate potential liver and renal toxicity of PCNA-I1, the blood of tumor-bearing mice were sampled after the treatment with PCNA-I1 for 8 weeks.

The test system of series [2] is HUVEC (primary human umbilical endothelial cells). Nature of the series: Growth inhibition, HUVEC. The format is cell-based. The following applies: for pIC50: HUVEC. On the procedure:
(§1) Growth inhibitory effects of PCNA-I1 and PCNA-I2 were assessed in human cancer cell lines, mouse cancer cell lines, immortalized mouse cell lines, and human primary cell lines. Specifically, growth inhibitory effects of PCNA-I1 and PCNA-I2 were assessed using MTT staining in the following cells lines: 1) human cancer cell lines including LNCaP (androgen receptor […]), 22Rv1, DU-145, LAPC-4, and PC-3 (androgen receptor […]) prostate cancer cells; MCF-7 and T47D breast cancer cells; A375 and MDA-MB435 melanoma cells; 2) mouse cancer cell lines including TRAMP-C2RE3 prostate cancer cells, B16 and K1735 melanoma cells, UV2237 fibrosarcoma cells, and CT-26 colon cancer cells; 3) immortalized mouse lung cell lines and mouse endothelial cell lines; and 4) primary human cell lines including umbilical endothelial cells (HUVEC, PromoCell, Heidelberg, Germany), primary bone marrow mesenchymal stem cells (HuMSC, PromoCell), primary human mammary epithelial cells (HuBrEC, Lonza, Walkersville, Md.), primary human prostate epithelial cells (HuPrEC, Lonza), and primary mouse spleen lymphocytes (isolated in this laboratory), and primary mouse bone marrow stromal cells (isolated in this laboratory). PCNA-I1 and PCNA-I2 were either provided by the University of Cincinnati Drug Discovery Center (UC-DDC, Cincinnati, Ohio) or were purchased from Chembridge Co (San Diego, Calif.), ChemDiv (San Diego, Calif.), and/or Sigma-Aldrich (St Louis, Mo.).
Growth inhibitory effects of the compounds were assessed by MTT staining as described previously by Dong et al. in In Vitro Model for Intrinsic Drug Resistance: Effects of Protein Kinase C Activators on the Chemosensitivity of Cultured Human Colon Cancer Cells; Mol. Pharmacol. 1991; 39: 563-9. […]
IC50 values were derived from growth inhibition curves. […] Inhibition of cell growth was calculated using the formula: growth inhibition (%)=(1−A570 of treated/A570 of control)×100. […] The fluorescence intensity was measured at 530/580 (excitation/emission) in the FLUOstar Omega microplate reader (BMG LABTECH, Cary, N.C.). […]

The subject of series [3] is MCF-7 breast cancer cells. Put plainly: Growth inhibition by MTT staining, MCF-7. The following applies: MCF7, 96 h, Human, tumor cells, treated four days. It counts as cell-based. On the procedure:
as §1, with “PCNA-I1 and PCNA-I2 were either provided by the University of Cincinnati Drug Discovery Center (UC-DDC, Cincinnati, Ohio) or were purchased from Chembridge Co (San Diego, Calif.), ChemDiv (San Diego, Calif.), and/or Sigma-Aldrich (St Louis, Mo.).” left out
(§2) IC50 values were derived from growth inhibition curves. […] Inhibition of cell growth was calculated using the formula: growth inhibition (%)=(1−A570 of treated/A570 of control)×100. […]

In series [4] the test system is Prostate Endothelial cells (Mu-Pr-Endo). Put plainly: Growth inhibition, mouse prostate endothelial cells. The following applies: Endothelial cell. It counts as cell-based. As for the experimental part: as §1, with “PCNA-I1 and PCNA-I2 were either provided by the University of Cincinnati Drug Discovery Center (UC-DDC, Cincinnati, Ohio) or were purchased from Chembridge Co (San Diego, Calif.), ChemDiv (San Diego, Calif.), and/or Sigma-Aldrich (St Louis, Mo.).” left out
as §2

In general, pIC50 refers to the IC50 on a negative log10 scale, so that one unit is a factor of ten.

pIC50: −log10 of the molar value. Like-named read-outs stand apart in the source and are kept apart here.

Consider `Cc1ccsc1C(=O)N/N=C/c1ccc2ccccc2c1O` [PCNA-I1], for which, in series [1] (10 or 50 mg/kg i.p. every other day, up to 8 weeks), the “Body weight of tumor-bearing mice” value is “did not cause significant reduction in the body weight”. Moreover, the “Aspartate transaminase (AST or SGOT)” value in series [1] (treatment for 8 weeks, FIG. 21) was “not significantly altered”. Besides, the “Blood urea nitrogen (BUN)” value in series [1] (treatment for 8 weeks, FIG. 21) is “not significantly altered”. Also, in series [1] (treatment for 8 weeks, FIG. 21), the “Serum alanine transaminase (ALT or SGPT)” value is “not significantly altered”. The “Growth stimulation, HUVEC” value in series [2] (FIG. 2(C)) was “Moderate growth stimulation”. Further, the pIC50 in series [2] (Human, Blood Vessel, normal cells, mean of three experiments, read-out: IC50 Values, HUVEC) was 5.81; in series [2] (Homo sapiens, FIG. 2(C), read-out: IC50, HUVEC) it was 5.81; in series [3], 6.82; in series [4] (Mouse, Blood Vessel, normal cells, read-out: IC50 Values, Prostate Endothelial) it was 6.17; in series [4] (Mus musculus, FIG. 2(C), read-out: IC50, Mu-Pr-Endo), 6.17.
